{"source": "patent US20180055848A1", "about": "(Board of Supervisors of Louisiana State University and …, priority 2015, published 2018)", "key": {"adults": {"system": "adults", "details": "after 6 months; cited from earlier work"}, "[1]": {"system": "Male Sprague-Dawley rats fed a high fat diet", "assay": "Example 6: lean and fat mass in rats, 8 weeks", "type": "in vivo, rat", "details": "i.p. twice a day, albuterol 0.125 mg/kg, caffeine 3.12 mg/kg", "experimental": "(§1) The Pennington Biomedical Research Center Animal Care and Use Committee approved the animal protocols. […] Male Sprague-Dawley rats (Harlan, Inc., Indianapolis, Ind., 8-9 weeks old) were fed a high fat diet (60% calories from fat, D12492, Research Diets, New Brunswick, N.J.) for 4 weeks. […] All treatments were administered by intraperitoneal injection twice a day. […] Body composition was measured by Nuclear Magnetic Resonance (Minispec LF90 NMR analyzer, Bruker Optics, Billerica, Mass.). Weight and food intake were recorded every 2 days. […] Total activity was measured with a Phenomaster system (TSE Systems, Chesterfield Mo.). Chambers had evenly spaced infrared beam grids along X, Y, and Z axes; the system sensed and quantified total beam breaks caused by movements of the animal."}, "[2]": {"system": "Male Sprague-Dawley rats fed a high fat diet", "assay": "Example 5: weight gain, body composition and metabolic chamber in rats, 4 weeks", "type": "in vivo, rat", "experimental": "as §1"}, "[3]": {"system": "lean adults and post-obese adults", "details": "100 mg of caffeine, cited from earlier work"}, "[4]": {"system": "Differentiated human adipocytes", "assay": "Lipolysis assay (glycerol release) in cultured adipocytes", "type": "cell-based", "details": "3 hours", "experimental": "Primary human adipose tissue was obtained from patients undergoing liposuction, paniculectomy, or bariatric surgery. Tissue was processed by […]) to isolate and cryopreserve pre-adipocytes. At the time of the assay, pre-adipocytes were differentiated into adipocytes. Differentiated human adipocytes adherent to the bottom of a 96-well plate were washed and treated with media containing one of ten treatments: […] After incubation, a 50 μL aliquot was removed and combined with 50 μL glycerol reagent, in a colorimetric assay based on the amount of glycerol released during incubation with test compounds. Absorbance was measured at 540 nm, and results were calibrated against a standard curve. Eight replicates were conducted for each treatment."}, "healthy adults": {"system": "healthy adults", "assay": "Metabolic rate in humans (indirect calorimetry, crossover study)"}}, "note": "Read-outs that look alike come from different tables or passages of the source."}
{"smiles": "CCCCCCCCCCC[C@@H](C[C@@H]1OC(=O)[C@H]1CCCCCC)OC(=O)[C@H](CC(C)C)NC=O", "note": "[Orlistat]", "values": [{"measurement": "weight loss", "setting": "adults", "result": "about 2.8%"}, {"measurement": "weight loss attributable to fat loss", "setting": "adults", "result": 2.1, "unit": "%"}, {"measurement": "weight loss attributable to reduction in lean tissue", "setting": "adults", "result": 0.7, "unit": "%"}]}
{"smiles": "CC(C)(C)NCC(O)c1ccc(O)c(CO)c1", "note": "(stereo not shown) [albuterol, albuterol (salbutamol)]", "values": [{"measurement": "fat mass gained, week 8", "setting": "[1]; p=0.004, n=30", "result": 20.1, "unit": "g"}, {"measurement": "lean mass gained by week 8", "setting": "[1]; p=0.03, n=30", "result": 60.3, "unit": "g"}, {"measurement": "additional lean mass gained compared to the saline control group", "setting": "[2]; 4 weeks, i.p. twice a day, albuterol 0.125 mg/kg, caffeine 3.12 mg/kg, p<0.001", "result": 16.6, "unit": "g"}, {"measurement": "weight gain compared to the saline control group", "setting": "[2]; 4 weeks, i.p. twice a day, albuterol 0.125 mg/kg, caffeine 3.12 mg/kg, p=0.04", "result": "gained significantly more weight"}, {"measurement": "energy expenditure during the dark phase", "setting": "[2]; albuterol 0.125 mg/kg i.p. twice a day, p=0.07", "result": "trend towards increased energy expenditure"}]}
{"smiles": "Cn1c(=O)c2c(ncn2C)n(C)c1=O", "note": "[caffeine]", "values": [{"measurement": "increase in resting metabolic rate", "setting": "[3]", "result": "3-4%"}, {"measurement": "increase in resting metabolic rate", "setting": "[3]; lean adults", "result": 150, "unit": "kcal/day"}, {"measurement": "increase in resting metabolic rate", "setting": "[3]; post-obese adults", "result": 80, "unit": "kcal/day"}, {"measurement": "increase in lipolysis over buffer-treated cells", "setting": "[4]; caffeine 10 μg/mL, p=0.83", "result": "exception"}, {"measurement": "fat accretion", "setting": "[2]; 4 weeks, i.p. twice a day, p=0.006", "result": "reduced fat accretion"}, {"measurement": "increased energy expenditure (the delta)", "setting": "healthy adults; 100 mg caffeine alone, oral", "result": 37, "unit": "kcal"}, {"measurement": "energy expenditure over the baseline metabolic rate", "setting": "healthy adults; all dosages, single oral dose, p<0.02 to p<0.001, n=8", "result": "significant increases"}]}
{"smiles": "CC(C)NCC(O)c1ccc(O)c(O)c1", "note": "(stereo not shown) [isoproterenol, Isoproterenol]", "values": [{"measurement": "increase in lipolysis", "setting": "[4]; Isoproterenol 1 μM positive control, p<0.001", "result": "~90", "unit": "%"}]}
